The results in this text go back to US20070048356A1, “Antimicrobial treatment of nonwoven materials for infection control” (priority 2005, published 2007).

One experiment has as its system S. aureus (ATCC 6538). The experiment can be described thus: Dynamic Shake Flask (based on ASTM E 2149-01) on treated nonwoven. It counts as cell-based.
Experiment [1] deals with broad spectrum of microorganism (gram positive and gram negative bacteria, and fungi: mold and yeast). To be noted: within 15 minutes; baseline data of Tables 12-15.
Procedure: The experimental procedure is based on ASTM E 2149-01. In brief, the test is performed by first adding a 2″×2″ sample of treated material to a flask containing 50 mL of a buffered-saline solution. The flask is then inoculated with the challenge organism (6.5-7 log10 total) and shaken through mechanical means for a designated period of time. At specified time points, a sample of the solution is then removed and plated. Lastly, the plate is incubated, examined for microbial growth, and the number of colony forming units counted. The log reduction in organisms is measured by comparing the growth on the experimental plate to control plates with no antimicrobial treatment.

Some results are limits rather than exact numbers.

On to Polyhexamethylene biguanide [PHMB], for which the “Dynamic Shake Flask Log10 Reduction” value with S. aureus (ATCC 6538) (Table 12, Meltblown, contact time 1 min) amounted to 4 Log10; in the experiment on S. aureus (ATCC 6538) (Table 12, Meltblown, contact time 5 min) it was 4 Log10; in the experiment with S. aureus (ATCC 6538) (Table 12, Meltblown, contact time 15 min), 4 Log10; with S. aureus (ATCC 6538) (Table 12, SMS, contact time 1 min) it was 4 Log10; with S. aureus (ATCC 6538) (Table 12, SMS, contact time 5 min) it was 4 Log10; in the experiment on S. aureus (ATCC 6538) (Table 12, SMS, contact time 15 min), 4 Log10. For the same substance, the “Dynamic Shake Flask Log10 Reduction” value with S. aureus (ATCC 6538) (Table 12, Spunbond, contact time 1 min) was found to be 4 Log10; in the experiment with S. aureus (ATCC 6538) (Table 12, Spunbond, contact time 5 min) it was 4 Log10; in the experiment with S. aureus (ATCC 6538) (Table 12, Spunbond, contact time 15 min) it was 4 Log10; in the experiment on S. aureus (ATCC 6538) (Table 16, Spunbond substrate, contact time 1 min, listed as 0.5% PHMB) it was 2.31 Log10; in the experiment on S. aureus (ATCC 6538) (Table 16, Spunbond substrate, contact time 1 min, listed as 1.0% PHMB), 4.00 Log10; with S. aureus (ATCC 6538) (Table 16, Spunbond substrate, contact time 5 min), 4.00 Log10. Further, the “Dynamic Shake Flask Log10 Reduction” value in the experiment with S. aureus (ATCC 6538) (Table 16, Spunbond substrate, contact time 15 min) is given as 4.00 Log10; in the experiment on S. aureus (ATCC 6538) (Table 17, Spunbond substrate, contact time 1 min), 0.18 Log10; in the experiment on S. aureus (ATCC 6538) (Table 17, Spunbond substrate, contact time 5 min) it was 0.33 Log10; with S. aureus (ATCC 6538) (Table 17, Spunbond substrate, contact time 15 min) it was 0.58 Log10; in the experiment on S. aureus (ATCC 6538) (Table 19, SMS substrate, contact time 1 min) it was 0.18 Log10; in the experiment with S. aureus (ATCC 6538) (Table 19, SMS substrate, contact time 5 min), 0.33 Log10. In addition, the “Dynamic Shake Flask Log10 Reduction” value in the experiment on S. aureus (ATCC 6538) (Table 19, SMS substrate, contact time 15 min) is reported as 0.58 Log10. Besides, the “log10 reduction in colony forming units (CFU)” value in experiment [1] is reported as at least 3 log10.
